The values below come from patent publication US20230293629A1, “METHODS FOR ATTENUATING RELEASE OF INFLAMMATORY MEDIATORS AND PEPTIDES USEFUL THEREIN” (BIOMARCK PHARMACEUTICALS LTD., priority 2006, published 2023).

The test system of data set [1] is human neutrophils. Put plainly: PMA-stimulated MPO release from isolated human neutrophils (TMB assay). To be noted: 100 μM test peptide, two hour incubation with 100 nM PMA; human neutrophils. It counts as cell-based. An excerpt: Human neutrophil isolation—These studies were approved by the human studies Institutional Review Board (IRB). Human neutrophils were isolated as previously described (see Takashi S, OkuboY, Horie S. Contribution of CD54 to human eosinophil and neutrophil superoxide production. J Appl Physiol 2001; 91:613-622) with slight modifications. Briefly, heparinized venous blood was obtained from normal healthy volunteers, diluted with RPMI-1640 (Cellgro; Mediatech, Inc., Herndon, VA) at a ratio of 1:1, layered onto a Histopaque (density, 1.077 g/ml; Sigma-Aldrich Co., St. Louis, MO) and centrifuged at 400 g for 20 min at 4° C. The supernatant and mononuclear cells at the interface were carefully removed, and erythrocytes in the sediment were lysed in chilled distilled water. Isolated granulocytes were washed twice with Hanks' balanced salts solution (HBSS) and resuspended in HBSS on ice.
Measurement of released neutrophil MPO activity—For measurement of MPO release, purified human neutrophils suspended in HBSS were aliquoted at 4×10^6 cells/ml in 15 ml tubes and preincubated with either 50 or 100 μM of MANS, RNS, or one of the peptides of invention for 10 min at 37° C. The cells then were stimulated with 100 nM phorbol 12-myristate 13-acetate (PMA) for up to 3 hrs. A control reference (PMA control reference) was established using purified human neutrophils suspended in HBSS aliquoted at 4×10^6 cells/ml in 15 mL tubes and stimulated with 100 nM phorbol 12-myristate 13-acetate (PMA) in the absence of a test peptide for the same time periods. The reaction was terminated by placing the tubes on ice and centrifugation at 400 g for 5 min at 4° C.
MPO activity in the cell supernatant was assayed using tetramethylbenzidine (TMB) based on a previously established technique (Abdel-Latif D, Steward M, Macdonald D L, Francis G A., Dinauer M C, Lacy P. Rac2 is critical for neutrophil primary granule exocytosis. Blood 2004; 104:832-839). Briefly, 100 μL of TMB substrate solution was added to 50 μL of cell supernatants or standard human MPO (EMD Biosciences, Inc., San Diego, CA) in a 96-well microplate followed by incubation at room temperature for 15 min. The reaction was terminated by addition of 50 μL of 1M […] and absorbance was read at 450 nm in a spectrophotometric microplate reader (VERSA max, Molecular Devices, Sunnyvale, CA).
The data presented in the table below represents 100 μM concentration of test peptides and a two hour incubation with 100 nM PMA.

The subject of data set [2] is HL-60 clone 15 cells. Put plainly: PMA-stimulated EPO release from HL-60 clone 15 cells. The data set is classed as cell-based, human. Particulars: 50 μM test peptide, two hour incubation with 100 nM PMA; HL-60 clone 15 cells. The method, then:
(§1) Three types of human leukocyte cell lines, specifically the promyelocytic cell line HL-60 clone 15, the monocytic cell line U937, and the lymphocyte natural killer cell line NK-92 were purchased from American Type Culture Collection (ATCC; Rockville, MD). HL-60 clone 15 cells (ATCC CRL-1964) were maintained in medium consisting of RPMI 1640 with L-glutamine supplemented with 10% heat-inactivated fetal bovine serum (Gibco; Invitrogen Co., Carlsbad, CA), 50 IU/ml penicillin, 50 μg/mL streptomycin, and 25 mM HEPES buffer, pH 7.8, at 37° C. in an atmosphere containing 5% CO2. Final differentiation to an eosinophil-like phenotype was initiated by culturing cells at 5×10^5 cells/ml in the above medium containing 0.5 mM butyric acid (Sigma-Aldrich Co.) for 5 days as previously described (Tiffany H L, Li F, Rosenberg H F. Hyperglycosylation of eosinophil ribonucleases in a promyelocytic leukemia cell line and in differentiated peripheral blood progenitor cells. J Leukoc Biol 1995; 58:49-54; Tiffany H L, Alkhatib G, Combadiere C, Berger E A, Murphy P M. CC chemokine receptors 1 and 3 are differentially regulated by IL-5 during maturation of eosinophilic HL-60 cells. J Immunol 1998; 160:1385-1392). U937 cells (ATCC CRL-1593.2) were grown at 37° C. in an atmosphere of 5% CO2 in complete medium consisting of RPMI 1640 with L-glutamine supplemented with 10% FBS, 50 IU/ml penicillin, and 50 μg/mL streptomycin. NK-92 cells (ATCC CRL-2407) were maintained in alpha-MEM medium (Sigma-Aldrich Co.) supplemented with 20% FBS, 100 U/ml of interleukin-2 (IL-2) (Chemicon International, Inc., Temecula, CA), 5×10^−5 M of 2-mercaptoethanol, 50 IU/mL penicillin, and 50 μg/ml streptomycin at 37° C. in an atmosphere containing 5% CO2. Cell morphology was judged by assessment of Wright-Giemsa-stained cells. Viability of cells harvested for experiments was assessed by trypan blue exclusion and populations of cells with viability >95% were used.
(§2) HL-60 clone 15, U937, and NK-92 cells were washed and resuspended at 2.5×10^6 cells/ml in phenol red-free RPMI-1640 (Cellgro; Mediatech, Inc.) for all degranulation assays. Aliquots of cells in 15 ml tubes were preincubated with indicated concentrations of MANS, RNS, or a test peptide for 10 min at 37° C. The cells then were stimulated with PMA for up to 2 hr. A control reference (PMA control reference) was established for each cell type using HL-60 clone 15, U937, and NK-92 cells, respectively, which were washed and resuspended at 2.5×10^6 cells/ml in phenol red-free RPMI-1640 and stimulated with PMA but in the absence of MANS, RNS, or a test peptide for the same time periods. The reaction was terminated by placing tubes on ice and centrifuging cells at 400 g for 5 min at 4° C.
(§3) For measurements of released MPO from neutrophils and released lysozyme from U937 cells, we were able to quantify secretion by using as standards human MPO and egg white […], respectively. For released EPO from HL-60 clone 15 cells and for released granzyme from NK-92 cells, no standards were available to use for quantification. […] To measure intracellular EPO in HL-60 clone 15 cells and intracellular granzyme in NK-92 cells, appropriate aliquots of 0.1% triton X-100-lysed cells were taken for quantification of intracellular granule proteins as described below. All treatments were expressed as percentage of control to minimize variability between cultures.
EPO activity released by HL-60 clone 15 cells was assayed using TMB according to a previously established technique (Lacy P, Mahmudi-Azer S, Bablitz B, Hagen S C, Velazquez J R, Man S F, Moqbel R. Rapid mobilization of intracellularly stored RANTES in response to interferon-gamma in human eosinophils. Blood 1999; 94:23-32). Thus, 100 μL of TMB substrate solution was added to 50 μL=microliters) of sample in a 96-well microplate and incubated at room temperature for 15 min (min=minutes). […]

The test system of data set [3] is U937 cells. As to the kind of experiment: PMA-stimulated lysozyme secretion by U937 cells. The data set is classed as cell-based, human. To be noted: 50 μM test peptide, two hour incubation with 100 nM PMA; U937 cells. The method, then:
as §1, §2, §3
Lysozyme secreted by U937 cells was measured using a spectrophotometric assay as described previously (Balboa M A, Saez Y, Balsinde J. Calcium-independent phospholipase A2 is required for lysozyme secretion in U937 promonocytes. J Immunol 2003; 170:5276-5280) with slight modification. Thus, 100 μL of sample was mixed with 100 μL of a Micrococcus lysodeikticus (Sigma-Aldrich Co.) suspension (0.3 mg/ml in 0.1 M sodium phosphate buffer, pH 7.0) in a 96-well microplate. The decrease in absorbance at 450 nm was measured at room temperature. […]

Data set [4] is described as follows: Qualitative solubility of peptides in 0.5 N saline, pH 6.5.

Where a SMILES comes first, the peptide text is derived from it. Where no end group is shown, it is not given here. [ ]: non-standard residue; d: D form. The star is where a group is joined. Myristoyl = CCCCCCCCCCCCCC(=O)* A value given as a limit tells only on which side of the number the result lay.

For `CC(=O)NCC(=O)N[C@H](C)C(=O)N[C@H](CCC(N)=O)C(=O)N[C@H](Cc1ccccc1)C(=O)N[C@H](CO)C(=O)N[C@H](CCCCN)C(=O)N[C@@H](C(=O)N[C@H](C)C(=O)N[C@H](C)C(=O)N[C@H](CCCCN)C(=O)O)[C@H](C)O` [Ac-GAQFSKTAAK (all d), GAQFSKTAAK (all d)] (Ac-G[dA][dQ][dF][dS][dK][dT][dA][dA][dK]-OH; C-terminus assumed), in data set [1], the “% Inhibition MPO” value was 40.0%. Moreover, in data set [2], the “% Inhibition EPO” value is listed as 26.9%. Besides, the “% Inhibition Lysozyme” value in data set [3] was found to be 8.9%. Moreover, the solubility in data set [4] was > 100 mg/mL.

Consider `CCCCCCCCCCCCCC(=O)NCC(=O)N[C@@H](C)C(=O)N[C@@H](CCC(N)=O)C(=O)N[C@@H](Cc1ccccc1)C(=O)N[C@@H](CO)C(=O)N[C@@H](CCCCN)C(=O)N[C@H](C(=O)N[C@@H](CCCCN)C(=O)N[C@@H](C)C(=O)N[C@@H](CCCCN)C(=O)NCC(=O)N[C@@H](CCC(=O)O)C(=O)O)[C@@H](C)O` [MA-GAQFSKTKAKGE, GAQFSKTKAKGE] (Myristoyl-GAQFSKTKAKGE-OH; C-terminus assumed), for which, in data set [1], the “% Inhibition MPO” value is 65.2%. The solubility in data set [4] is > 3 mg/mL.

In the case of `CCCCCCCCCCCCCC(=O)N[C@H](C(=O)N[C@@H](C)C(=O)N[C@@H](C)C(=O)N[C@@H](CCCCN)C(=O)NCC(=O)N[C@@H](CCC(=O)O)C(=O)N[C@@H](C)C(=O)N[C@@H](C)C(=O)O)[C@@H](C)O` [MA-TAAKGEAA, TAAKGEAA] (Myristoyl-TAAKGEAA-OH; C-terminus assumed), in data set [2], the “% Inhibition EPO” value came to 0%. Besides, the “% Inhibition Lysozyme” value in data set [3] was found to be 80.2%. In addition, the solubility in data set [4] was < 1 mg/mL.

Consider Ac-AAKGEA [Ac-AAKGEA, AAKGEA], for which the “% Inhibition EPO” value in data set [2] is 10.6%. Besides, in data set [3], the “% Inhibition Lysozyme” value is 9.2%. For the same compound, the solubility in data set [4] is > 150 mg/mL.

With “Ac-AQFSKTAAKGE-NH2 [Ac-AQFSKTAAKGE-NH2, AQFSKTAAKGE]”, the “% Inhibition EPO” value in data set [2] is on record as 42.8%. Further, the “% Inhibition Lysozyme” value in data set [3] worked out at 51.8%. Besides, the solubility in data set [4] is > 90 mg/mL.

With “Ac-FSKTAAKGE-NH2 [Ac-FSKTAAKGE-NH2, FSKTAAKGE]”, the “% Inhibition EPO” value in data set [2] was 25.3%. The “% Inhibition Lysozyme” value in data set [3] was 56.7%. The solubility in data set [4] was > 100 mg/mL.

In the case of “Ac-GAQFSATAAA [Ac-GAQFSATAAA, GAQFSATAAA]”, in data set [2], the “% Inhibition EPO” value was 35.7%. Also, in data set [3], the “% Inhibition Lysozyme” value was 3.2%. Also, in data set [4], the solubility was < 10 mg/mL.

With Ac-GAQFSKTA [Ac-GAQFSKTA, GAQFSKTA], in data set [2], the “% Inhibition EPO” value is given as 0%. The “% Inhibition Lysozyme” value in data set [3] is 0%. Further, in data set [4], the solubility was > 200 mg/mL.

Take Ac-GAQFSKTAA [Ac-GAQFSKTAA, GAQFSKTAA]: the “% Inhibition EPO” value in data set [2] came out at 33.3%. Further, the “% Inhibition Lysozyme” value in data set [3] came to 28.9%. In addition, in data set [4], the solubility was > 20 mg/mL.

In the case of “Ac-GAQFSKTAAA [Ac-GAQFSKTAAA, GAQFSKTAAA]”, in data set [2], the “% Inhibition EPO” value was determined as 55.2%. In addition, the “% Inhibition Lysozyme” value in data set [3] was found to be 28.3%. Besides, in data set [4], the solubility is > 100 mg/mL.

On to “Ac-GAQFSKTAAAGE [Ac-GAQFSKTAAAGE, GAQFSKTAAAGE]”, for which the “% Inhibition EPO” value in data set [2] is on record as 55.8%. Also, the “% Inhibition Lysozyme” value in data set [3] was 37.2%. Also, the solubility in data set [4] is > 50 mg/mL.

As for “Ac-GAQFSKTAAKGA [Ac-GAQFSKTAAKGA, GAQFSKTAAKGA]”, the “% Inhibition EPO” value in data set [2] came to 40.9%. The “% Inhibition Lysozyme” value in data set [3] was 24.1%. Also, the solubility in data set [4] is > 50 mg/mL.

In the case of “Ac-GAQFSKTAAKGE [Ac-GAQFSKTAAKGE, GAQFSKTAAKGE]”, in data set [2], the “% Inhibition EPO” value turned out to be 46.7%. In addition, in data set [3], the “% Inhibition Lysozyme” value is recorded as 43.3%. Moreover, in data set [4], the solubility was > 100 mg/mL.

“Ac-KTAAKGE-NH2 [Ac-KTAAKGE-NH2, KTAAKGE]”: the “% Inhibition EPO” value in data set [2] is 0%. Further, the “% Inhibition Lysozyme” value in data set [3] was 24.3%. The solubility in data set [4] was > 200 mg/mL.

As for “Ac-QFSKTAAKGE-NH2 [Ac-QFSKTAAKGE-NH2, QFSKTAAKGE]”, in data set [2], the “% Inhibition EPO” value was found to be 15.7%. Moreover, in data set [3], the “% Inhibition Lysozyme” value is recorded as 60.7%. Moreover, the solubility in data set [4] is > 150 mg/mL.

Consider “Ac-SKTAAKGE-NH2 [Ac-SKTAAKGE-NH2, SKTAAKGE]”, for which the “% Inhibition EPO” value in data set [2] is recorded as 42.2%. Further, the “% Inhibition Lysozyme” value in data set [3] turned out to be 0%. Also, the solubility in data set [4] is > 200 mg/mL.

Consider Ac-TAAKGEAA [Ac-TAAKGEAA, TAAKGEAA], for which, in data set [2], the “% Inhibition EPO” value was 40.4%. Besides, the “% Inhibition Lysozyme” value in data set [3] came out at 0.5%. In data set [4], the solubility was > 230 mg/mL.

Consider “H-GAQFSKTAAKGE [peptide 79, GAQFSKTAAKGE]”, for which the “% Inhibition MPO” value in data set [1] was found to be 27.9%.

In general, solubility refers to the dissolved amount per volume that the medium holds. The low end stands for a poorly soluble substance, the high end for a readily soluble substance.
